According to PubChem BioAssay (NCI):
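How tested: cells in 96-well plates exposed to compound for 48 hours at five concentrations. Abbreviation: GI50, concentration required for 50% inhibition of growth. TGI denotes the concentration required for complete inhibition of growth.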

How the values were obtained:
Assay in all cases: NCI-60 cell line screen, 48 h
[1] = system: HOP-18 NSCLC
[2] = system: SK-OV-3 ovarian
[3] = system: DMS 114 small cell lung
[4] = system: DLD-1 colon
[5] = system: KM20L2 colon
[6] = system: OVCAR-5 ovarian
[7] = system: SNB-19 CNS
[8] = system: DU-145 prostate
[9] = system: 786-0 renal
[10] = system: PC-3 prostate
[11] = system: MDA-MB-435
[12] = system: NCI/ADR-RES ovarian
[13] = system: MDA-N
[14] = system: XF 498 CNS

SMILES	TGI [1] [µM]	TGI [2] [µM]	TGI [3] [µM]	TGI [4] [µM]	TGI [5] [µM]	TGI [6] [µM]	TGI [7] [µM]	TGI [8] [µM]	TGI [9] [µM]	TGI [10] [µM]	TGI [11] [µM]	TGI [12] [µM]	TGI [13] [µM]	TGI [14] [µM]	GI50 [2] [nM]	GI50 [8] [nM]	GI50 [10] [nM]	GI50 [11] [nM]	GI50 [12] [µM]	GI50 [6] [nM]
CCOC(=O)C1=C(C)N(C2OC(COC(C)=O)C(OC(C)=O)C(OC(C)=O)C2OC(C)=O)C(=O)NC1c1ccccc1 (centres undefined)	> 100	> 100	> 100	> 100	> 100	> 100	> 100													
CSS(C)(=O)=O						49.1	> 100	45.9	> 100	48.7	44.3	> 100								
CCCCCCC(=O)c1ccc2ccccc2c1O		> 100					> 100	92.6	> 100	> 100	> 100	> 100								
COc1ccc(-c2c3c(nc4[nH]c(=S)[nH]c(=S)c24)CCCC3)cc1OC		> 100				> 100	> 100	> 100		79	> 100	66.1	> 100							
CCCCn1c(C)c2c(c1C)C(=O)N(CCN1CCN(c3ccccc3Cl)CC1)C2=O		> 100				> 100	> 100	> 100		79.5	90.3	> 100	> 100							
CCOC(=O)/C=C/c1c[nH]c(=O)[nH]c1=O	> 75	> 61.2	> 75	> 75	> 75	> 75	> 75					> 75		> 75						
c1ccc(N2N=C3N(c4ccccc4)C2N3c2ccccc2)cc1		> 100				> 100	> 100	> 100		> 100	31.6	> 100	41.8							
C=CCOC1OC(CS(=O)(=O)O)C(OC(C)=O)C(OC(C)=O)C1OC(C)=O (centres undefined)		> 100				> 100	> 100	> 100		> 100	> 100	> 100	> 100							
CC(=O)OCc1nnn2c1CCC2	> 100	> 100		> 100	> 100	> 100								> 100						
CCCCCCCCCC[N+](C)(C)C		13				3.89		4.88		5.16	4.29	49.6			2570	1940	978	1750	15.1	1050
COc1c2occc2cc2ccc(=O)oc12		> 100				> 100	> 100	> 100	> 100	> 100	> 100	> 100	> 100						> 100	
COc1ccc(OCC(C)(C)O)cc1	> 100	> 100	> 100	> 100	> 100	> 100	> 100					> 100		> 100						
